Consider 14 compounds from patent publication US12410208B2, “(2-acetamidyl)thio-beta-D-galactopyranoside derivatives” (Idorsia Pharmaceuticals Ltd, priority 2020, dated 2025).

For assay [1], the target named is biotinylated human Gal-3 (hGal-3) (Homo sapiens, UniProt P17931). Nature of the assay: Competitive binding assay: biotinylated hGal-3 binding to microplate-adsorbed asialofetuin (ASF), spectrophotometric. In outline: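 Competitive binding of biotinylated hGal-3 to plate-adsorbed asialofetuin was measured with serially diluted compounds over 3 h at 4° C. Bound protein was detected with streptavidin-peroxidase and ABTS substrate by absorbance. IC50 values are means of several measurements.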
Sequence of biotinylated human Gal-3 (hGal-3) (P17931 whole entry): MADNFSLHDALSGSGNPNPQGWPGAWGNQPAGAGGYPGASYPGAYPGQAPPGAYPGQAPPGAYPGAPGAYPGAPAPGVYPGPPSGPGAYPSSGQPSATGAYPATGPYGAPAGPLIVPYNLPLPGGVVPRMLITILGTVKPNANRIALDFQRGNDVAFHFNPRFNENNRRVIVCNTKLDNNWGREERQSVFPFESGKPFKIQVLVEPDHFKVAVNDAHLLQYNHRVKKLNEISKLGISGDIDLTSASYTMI

For a further assay, the target named is human Gal-1 (hGal-1) (Homo sapiens, UniProt P09382). The experiment in a line: Competitive binding assay: biotinylated hGal-1 binding to microplate-adsorbed asialofetuin (ASF), spectrophotometric. To be noted: hGal-1 binding to asialofetuin; Table 15; R and S epimers of selected Examples also listed; read-out: IC50 (Galectin-1 inhibition). In outline: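 Biotinylated hGal-1 (300-1000 ng/mL) incubated with compound on asialofetuin-coated plates 3 hours at 4 °C, washed, then streptavidin-peroxidase (80 ng/mL) 1 hour at 4 °C. ABTS substrate read spectrophotometrically; IC50 reported as mean of several measurements.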
Sequence of human Gal-1 (hGal-1) (P09382 whole entry): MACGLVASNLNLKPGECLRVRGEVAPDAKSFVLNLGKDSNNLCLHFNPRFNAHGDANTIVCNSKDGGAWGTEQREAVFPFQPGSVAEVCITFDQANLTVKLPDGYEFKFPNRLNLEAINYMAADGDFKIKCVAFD

Setting [2] is: Table 11, hGal-3, read-out: IC50 (Gal-3 inhibition).
The mark [3] stands for this setting: Table 8, hGal-3, read-out: IC50 (Gal-3 inhibition).
The mark [4] stands for this setting: Gal-3 inhibition, Table 5, read-out: IC50.

Like-named read-outs stand apart in the source and are kept apart here.

What is called IC50 is the concentration needed to halve the response being measured. `CCN(C)C(=O)C(S[C@@H]1O[C@H](CO)[C@H](O)[C@H](n2cc(-c3cc(F)c(F)c(Cl)c3)nn2)[C@H]1O)C1(O)CCOCC1` (stereo partly drawn) [Example 15.41.203., 2-(((2S,3R,4S,5R,6R)-4-(4-(3-Chloro-4,5-difluorophenyl)-1H-1,2,3-triazol-1-yl)-3,5-dihydroxy-6-(hydroxymethyl)tetrahydro-2H-pyran-2-yl)thio)-N-ethyl-2-(4-hydroxytetrahydro-2H-pyran-4-yl)-N-methylacetamide]: the IC50 was determined as 60 nM in assay [1] (setting [2]) and 80 nM at human Gal-1 (hGal-1).
Take `CCN(C)C(=O)C(S[C@@H]1O[C@H](CO)[C@H](O)[C@H](n2cc(-c3ccc(F)c(F)c3)nn2)[C@H]1O)C1(O)CCOCC1` (stereo partly drawn) [Example 16.41.203., 2-(((2S,3R,4S,5R,6R)-4-(4-(3,4-Difluorophenyl)-1H-1,2,3-triazol-1-yl)-3,5-dihydroxy-6-(hydroxymethyl)tetrahydro-2H-pyran-2-yl)thio)-N-ethyl-2-(4-hydroxytetrahydro-2H-pyran-4-yl)-N-methylacetamide]: the values for the IC50 (in assay [1] (setting [2]); at human Gal-1 (hGal-1)) were 60 nM and 130 nM, respectively.
As for `CCN(C)C(=O)C(S[C@@H]1O[C@H](CO)[C@H](O)[C@H](n2cc(-c3cc(F)c(Cl)c(Cl)c3)nn2)[C@H]1O)C1(O)CCOCC1` (stereo partly drawn) [Example 17.41.203., 2-(((2S,3R,4S,5R,6R)-4-(4-(3,4-Dichloro-5-fluorophenyl)-1H-1,2,3-triazol-1-yl)-3,5-dihydroxy-6-(hydroxymethyl)tetrahydro-2H-pyran-2-yl)thio)-N-ethyl-2-(4-hydroxytetrahydro-2H-pyran-4-yl)-N-methylacetamide], the IC50 in assay [1] (setting [2]) is 40 nM; on human Gal-1 (hGal-1), 140 nM.
In the case of `CCN(C)C(=O)C(S[C@@H]1O[C@H](CO)[C@H](O)[C@H](n2cc(-c3cc(F)c(Br)c(F)c3)nn2)[C@H]1O)C1(O)CCOCC1` (stereo partly drawn) [Example 18.41.203., 2-(((2S,3R,4S,5R,6R)-4-(4-(4-Bromo-3,5-difluorophenyl)-1H-1,2,3-triazol-1-yl)-3,5-dihydroxy-6-(hydroxymethyl)tetrahydro-2H-pyran-2-yl)thio)-N-ethyl-2-(4-hydroxytetrahydro-2H-pyran-4-yl)-N-methylacetamide], the results for the IC50 (in assay [1] (setting [2]); at human Gal-1 (hGal-1)) were 40 nM and 350 nM, respectively.
`CCN(C)C(=O)C(S[C@@H]1O[C@H](CO)[C@H](O)[C@H](n2cc(-c3cc(C)cc(C#N)c3)nn2)[C@H]1O)C1(O)CCOCC1` (stereo partly drawn) [Example 19.41.203., 2-(((2S,3R,4S,5R,6R)-4-(4-(3-Cyano-5-methylphenyl)-1H-1,2,3-triazol-1-yl)-3,5-dihydroxy-6-(hydroxymethyl)tetrahydro-2H-pyran-2-yl)thio)-N-ethyl-2-(4-hydroxytetrahydro-2H-pyran-4-yl)-N-methylacetamide]: the IC50 (in assay [1] (setting [2]); at human Gal-1 (hGal-1)) was 150 nM in each case.
For the compound `CCN(C)C(=O)C(S[C@@H]1O[C@H](CO)[C@H](O)[C@H](n2cc(-c3cc(C)cc(F)c3)nn2)[C@H]1O)C1(O)CCOCC1` (stereo partly drawn) [Example 20.41.203., N-ethyl-2-(((2S,3R,4S,5R,6R)-4-(4-(3-Fluoro-5-methylphenyl)-1H-1,2,3-triazol-1-yl)-3,5-dihydroxy-6-(hydroxymethyl)tetrahydro-2H-pyran-2-yl)thio)-2-(4-hydroxytetrahydro-2H-pyran-4-yl)-N-methylacetamide], the 50% inhibitory concentration (IC50) was found to be 60 nM in assay [1] (setting [2]) and 180 nM at human Gal-1 (hGal-1).
For the compound “(2R,3R,4S,5R,6S)-2-(Acetoxymethyl)-6-(((R)-2-(ethyl(methyl)amino)-1-(3-hydroxy-1-(methoxycarbonyl)azetidin-3-yl)-2-oxoethyl)thio)-4-(4-(3,4,5-trifluorophenyl)-1H-1,2,3-triazol-1-yl)tetrahydro-2H-pyran-3,5-diyl diacetate [Example 2.58.203R.]”, the IC50 stood at 450 nM in assay [1] (setting [3]) and 1180 nM at human Gal-1 (hGal-1).
Turning to “(2R,3R,4S,5R,6S)-2-(Acetoxymethyl)-6-(((S)-2-(ethyl(methyl)amino)-1-(3-hydroxy-1-(methoxycarbonyl)azetidin-3-yl)-2-oxoethyl)thio)-4-(4-(3,4,5-trifluorophenyl)-1H-1,2,3-triazol-1-yl)tetrahydro-2H-pyran-3,5-diyl diacetate [Example 2.58.203S.]”, the figures for the IC50 (in assay [1] (setting [3]); on human Gal-1 (hGal-1)) were 30 nM and 100 nM, respectively.
In the case of “(R)-2-(((2S,3R,4S,5R,6R)-3,5-Dihydroxy-6-(hydroxymethyl)-4-(4-(3,4,5-trifluorophenyl)-1H-1,2,3-triazol-1-yl)tetrahydro-2H-pyran-2-yl)thio)-2-(1-hydroxycyclohexyl)-N-methyl-N-(pyridin-2-ylmethyl)acetamide [Example 2.39.224R.]”, the half-inhibitory concentration (IC50) in assay [1] (setting [4]) is 1400 nM; on human Gal-1 (hGal-1), 2820 nM.
Turning to “(R)-N-Cyclobutyl-2-(4,4-difluoro-1-hydroxycyclohexyl)-2-(((2S,3R,4S,5R,6R)-3,5-dihydroxy-6-(hydroxymethyl)-4-(4-(3,4,5-trifluorophenyl)-1H-1,2,3-triazol-1-yl)tetrahydro-2H-pyran-2-yl)thio)-N-methylacetamide [Example 2.44.206R.]”, the IC50 turned out to be 440 nM in assay [1] (setting [4]) and 1480 nM on human Gal-1 (hGal-1).
As for “(S)-2-(4,4-Difluoro-1-hydroxycyclohexyl)-2-(((2S,3R,4S,5R,6R)-3,5-dihydroxy-6-(hydroxymethyl)-4-(4-(3,4,5-trifluorophenyl)-1H-1,2,3-triazol-1-yl)tetrahydro-2H-pyran-2-yl)thio)-1-(piperidin-1-yl)ethan-1-one [Example 2.44.208S.]”, the figures for the IC50 (in assay [1] (setting [4]); at human Gal-1 (hGal-1)) were 20 nM and 30 nM, respectively.
For “(S)-2-(((2S,3R,4S,5R,6R)-3,5-Dihydroxy-6-(hydroxymethyl)-4-(4-(3,4,5-trifluorophenyl)-1H-1,2,3-triazol-1-yl)tetrahydro-2H-pyran-2-yl)thio)-2-(1-hydroxycyclohexyl)-N-methyl-N-(pyridin-2-ylmethyl)acetamide [Example 2.39.224S.]”, the IC50 in assay [1] (setting [4]) stood at 60 nM; at human Gal-1 (hGal-1), 70 nM.
The like results for “(S)-N-Cyclobutyl-2-(4,4-difluoro-1-hydroxycyclohexyl)-2-(((2S,3R,4S,5R,6R)-3,5-dihydroxy-6-(hydroxymethyl)-4-(4-(3,4,5-trifluorophenyl)-1H-1,2,3-triazol-1-yl)tetrahydro-2H-pyran-2-yl)thio)-N-methylacetamide [Example 2.44.206S.]” were, in that order, 40 nM and 190 nM.
“N-Cyclopropyl-4-(2-(ethyl(methyl)amino)-1-(((2S,3R,4S,5R,6R)-5-hydroxy-6-(hydroxymethyl)-3-methoxy-4-(4-(3,4,5-trifluorophenyl)-1H-1,2,3-triazol-1-yl)tetrahydro-2H-pyran-2-yl)thio)-2-oxoethyl)-4-hydroxypiperidine-1-carboxamide [Example 2.49.226.I.]”: the values for the IC50 (in assay [1] (setting [3]); on human Gal-1 (hGal-1)) were 100 nM and 180 nM, respectively.
